Measured values published in patent US5965607A, “Substituted Benzo[1,4]dioxines as antiobesity agents” (American Home Products Corporation, priority 1997, dated 1999).

Assays:
[1] = target: human β3 adrenergic receptors (Homo sapiens, UniProt P13945); test: cAMP elevation in CHO cells transfected with human β3 adrenergic receptor; format: cell-based; conditions: CHO cells expressing human β3 receptor, compound at 10 nM, 10 min, 37° C., relative to isoproterenol at 10 μM; for activation at 0.01 µM: read-out: β3, % of isoproterenol activity (increase in cAMP)
Protocol: (§1) The activity of the test compounds on human β-adrenergic receptors was determined with Chinese hamster ovary (CHO) cells transfected with human β3, β2, or β1 adrenergic receptors. The preparation of these cells has been described in Emorine, L. J., Marullo, S., Briend-Sutren, M., Patey, G., Tate, K., Delavier-Klutchko, C., Strosberg, A. D. Molecular Characterization of the Human Beta 3-AdrenergicReceptor Science 1989,245(8), 1118-1121 and in Muzzin, P., Revelli, J.-P., Kuhne, F., Gocayne, J. D., McCombie, W. R., Venter, J. C., Giacobino, J.- P., Fraser, C. M. An Adipose Tissue-Specific Beta 3-Adrenergic Receptor. Molecular Cloning and Down-Regulation in Obesity J. Biol. Chem. 1991, 226, 24053-24058. Agonist activity is indicated by increased cAMP levels in the CHO cells. Selectivity of the test compounds for the β3 receptor was assessed by comparison with results in β2 and β1 adrenergic receptor transfected cells.
(§2) 1). Chinese hamster ovary (CHO) cells transfected with human β3, β2, or β1 adrenergic receptors were used in the assay.
(§3) 2). Cells were grown to confluent conditions in 24 well plates.
(§4) 3). Drugs were dissolved in DMSO at a concentration of 10 μM.
(§5) 4). Cells were incubated with drug at 10 nM concentration for 10 min at 37° C. Isoproterenol (Standard 1) was used as the standard compound and assayed at 10 μM which gives a maximal cAMP elevation in all 3 cell types.
(§6) 5). Cell cAMP concentrations were assayed using a scintillation proximity assay from Amersham Corp (Chicago, Ill.).
(§7) 6). Activities for the test compounds are expressed as a percentage of the isoproterenol response.
(§8) a Human β receptors expressed in Chinese hamster ovary cells, compounds tested at 10 nM, results expressed as % of isoproterenol activity (increase in cAMP) at 10 μM.

[2] = target: human β2 adrenergic receptors (Homo sapiens, UniProt P07550); test: cAMP elevation in CHO cells transfected with human β2 adrenergic receptor; format: cell-based; conditions: CHO cells expressing human β2 receptor, compound at 10 nM, 10 min, 37° C., relative to isoproterenol at 10 μM; for activation at 0.01 µM: read-out: β2, % of isoproterenol activity (increase in cAMP)
Protocol: as §1, §2, §3, §4, §5, §6, §7, §8

plasma free fatty acids = test: Effects on free fatty acid levels in rats; format: in vivo, rat; conditions: for Rat Free Fatty Acid, elevation of plasma free fatty acids as % of Standard 2 response: 0.1 mg/kg via gavage, blood collected 50 min later, relative to Standard 2 at 0.1 mg/kg
Protocol: Rats respond to a single oral dose of β3 agonist by increasing plasma free fatty acids (FFA) in response to β3 receptor stimulation on the plasma membrane of the fat cell. 5-{2-[2-(3-Chloro-phenyl)-2-hydroxy-ethylamino]-propyl}-benzo[1,3]dioxole- 2,2-dicarboxylic acid diisopropyl ester (Standard 2) was used as a standard compound. All test compounds were dosed at 0.1 mg/kg and compared to the response by Standard 2.
1). Drugs were dissolved in DMSO at 10 mg/mL.
2). Twenty μl of the DMSO-drug solution was added to 10 mL methyl cellulose:Tween-80 (0.5%:0.1%) for a final concentration of 20 μg/mL.
3). Methyl cellulose:tween-80 drug suspension was given via gavage (1 mL/200g body weight; or 0.1 mg/kg) to rats and blood was collected 50 min later.
4). Plasma was analyzed for free fatty acids using a kit supplied by Biochemical Diagnostics Inc. (Brentwood, N.Y.).
5). Drug response was calculated from the formula below. [formula] Effects on Hyperglycemia in Mice
b Elevation of plasma free fatty acids in rats, compounds tested at 0.1 mg/kg, results expressed as % of 5-{2-[2-(3-chloro-phenyl)-2-hydroxy-ethylamino]-propyl}-benzo[1,3]dioxole- 2,2-dicarboxylic acid diisopropyl ester response (78% increase) at 0.1 mg/kg.

Chain of human β2 adrenergic receptors (P07550 whole entry): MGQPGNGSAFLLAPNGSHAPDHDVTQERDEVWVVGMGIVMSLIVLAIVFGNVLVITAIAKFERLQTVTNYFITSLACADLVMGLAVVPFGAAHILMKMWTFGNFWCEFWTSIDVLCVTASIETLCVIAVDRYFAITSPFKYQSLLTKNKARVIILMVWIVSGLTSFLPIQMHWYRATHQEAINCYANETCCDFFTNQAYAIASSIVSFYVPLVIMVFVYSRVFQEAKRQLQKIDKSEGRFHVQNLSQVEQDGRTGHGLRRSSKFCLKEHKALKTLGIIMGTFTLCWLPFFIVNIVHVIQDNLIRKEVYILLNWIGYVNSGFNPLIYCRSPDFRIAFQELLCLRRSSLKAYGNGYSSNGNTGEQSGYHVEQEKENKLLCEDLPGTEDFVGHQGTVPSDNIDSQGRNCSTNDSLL
Chain of human β3 adrenergic receptors (P13945 whole entry): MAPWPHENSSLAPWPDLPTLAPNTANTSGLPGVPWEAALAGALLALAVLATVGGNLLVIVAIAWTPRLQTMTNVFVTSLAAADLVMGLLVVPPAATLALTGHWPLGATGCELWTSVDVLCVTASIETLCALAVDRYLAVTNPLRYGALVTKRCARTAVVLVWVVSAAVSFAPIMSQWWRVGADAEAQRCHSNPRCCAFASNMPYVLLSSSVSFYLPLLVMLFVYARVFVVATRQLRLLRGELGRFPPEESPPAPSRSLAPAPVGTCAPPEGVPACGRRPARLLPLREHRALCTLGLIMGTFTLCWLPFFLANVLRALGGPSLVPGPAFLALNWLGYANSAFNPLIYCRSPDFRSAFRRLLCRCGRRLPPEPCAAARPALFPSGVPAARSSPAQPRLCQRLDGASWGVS

| Compound | β3, % of isoproterenol activity (increase in cAMP) [1] [%] | β2, % of isoproterenol activity (increase in cAMP) [2] [%] | activation at 0.01 µM [1] [%] | activation at 0.01 µM [2] [%] | Rat Free Fatty Acid, elevation of plasma free fatty acids as % of Standard 2 response (plasma free fatty acids) [%] | increase of plasma free fatty acids in rats (plasma free fatty acids; 0.1 mg/kg, response of the standard itself) [%] |
| --- | --- | --- | --- | --- | --- | --- |
| CCOCCOC(=O)C1Oc2ccc(C[C@@H](C)NC[C@H](O)c3cccc(Cl)c3)cc2OC1C(=O)OCCOCC (relative stereo) [Example 7, (2,3-cis)-6-{(2R)-2-[(2R)-2-(3-Chloro-phenyl)-2-hydroxy-ethylamino]-propyl}-2,3-dihydro-benzo[1,4]dioxine-2,3-dicarboxylic acid bis-(2-ethoxy-ethyl)ester] | 40 | 33 | – | – | 7 | – |
| CC(Cc1ccc2c(c1)OC(C(=O)OC(C)C)(C(=O)OC(C)C)O2)NCC(O)c1cccc(Cl)c1 (centres unmarked) [5-{2-[2-(3-Chloro-phenyl)-2-hydroxy-ethylamino]-propyl}-benzo[1,3]dioxole-2,2-dicarboxylic acid diisopropyl ester, reference compound] | – | – | – | – | – | 78 |
| CC(C)OC(=O)C1Oc2ccc(C[C@@H](C)NC[C@H](O)c3cccc(Cl)c3)cc2OC1C(=O)OC(C)C (some centres unmarked) [Example 4] | – | – | 4 | 9 | 32 | – |
| CC(C)OC(=O)C1Oc2cc(C[C@@H](C)NC[C@H](O)c3cccc(Cl)c3)ccc2OC1C(=O)O (stereo partly drawn) [Example 5, (2,3-cis)-6-{(2R)-2-[(2R)-2-(3-Chloro-phenyl)-2-hydroxy-ethylamino]-propyl}-2,3-dihydro-benzo[1,4]dioxine-2,3-dicarboxylic acid 3-isopropyl ester] | – | – | 50 | 11 | 6 | – |
| CCCCOC(=O)C1Oc2ccc(C[C@@H](C)NC[C@H](O)c3cccc(Cl)c3)cc2OC1C(=O)OCCCC (some centres unmarked) [Example 6] | – | – | 51 | 16 | 0 | – |
| CCOC(=O)C1Oc2ccc(C[C@@H](C)NC[C@H](O)c3cccc(Cl)c3)cc2OC1C(=O)OCC (stereo partly drawn) [Example 8, (2,3-cis)-6-{(2R)-2-[(2R)-2-(3-Chloro-phenyl)-2-hydroxy-ethylamino]-propyl}-2,3-dihydro-benzo[1,4]dioxine-2,3-dicarboxylic acid diethyl ester] | – | – | – | – | 19 | – |
| C[C@H](Cc1ccc2c(c1)OC(C(=O)OC1CCCCC1)C(C(=O)OC1CCCCC1)O2)NC[C@H](O)c1cccc(Cl)c1 (stereo partly drawn) [Example 9, (2,3-cis)-6-{(2R)-2-[(2R)-2-(3-Chloro-phenyl)-2-hydroxy-ethylamino]-propyl}-2,3-dihydro-benzo[1,4]dioxine-2,3-dicarboxylic acid dicyclohexyl ester] | – | – | 3 | 1 | 3 | – |

Second part, led by results:

| β3, % of isoproterenol activity (increase in cAMP) [1] [%] | β2, % of isoproterenol activity (increase in cAMP) [2] [%] | activation at 0.01 µM [1] [%] | activation at 0.01 µM [2] [%] | Compound | Rat Free Fatty Acid, elevation of plasma free fatty acids as % of Standard 2 response (plasma free fatty acids) [%] | increase of plasma free fatty acids in rats (plasma free fatty acids; 0.1 mg/kg, response of the standard itself) [%] |
| --- | --- | --- | --- | --- | --- | --- |
| – | – | 3 | 4 | C[C@H](Cc1ccc2c(c1)OC(C(=O)OC1CCCC1)C(C(=O)OC1CCCC1)O2)NC[C@H](O)c1cccc(Cl)c1 (stereo partly drawn) [Example 10, (2,3-cis)-6-{(2R)-2-[(2R)-2-(3-Chloro-phenyl)-2-hydroxy-ethylamino]-propyl}-2,3-dihydro-benzo[1,4]dioxine-2,3-dicarboxylic acid dicyclopentyl ester] | 20 | – |
| – | – | 97 | 38 | CCCCCCCCOC(=O)C1Oc2ccc(C[C@@H](C)NC[C@H](O)c3cccc(Cl)c3)cc2OC1C(=O)OCCCCCCCC (stereo partly drawn) [Example 11, (2,3-cis)-6-{(2R)-2-[(2R)-2-(3-Chloro-phenyl)-2-hydroxy-ethylamino]-propyl}-2,3-dihydro-benzo[1,4]dioxine-2,3-dicarboxylic acid dioctyl ester] | 5 | – |
| – | – | 27 | 11 | C[C@H](Cc1ccc2c(c1)OC(C(=O)OCc1ccccc1)C(C(=O)OCc1ccccc1)O2)NC[C@H](O)c1cccc(Cl)c1 (stereo partly drawn) [Example 12, (2,3-cis)-6-{(2R)-2-[(2R)-2-(3-Chloro-phenyl)-2-hydroxy-ethylamino]-propyl}-2,3-dihydro-benzo[1,4]dioxine-2,3-dicarboxylic acid dibenzyl ester] | 11 | – |
